From US20250099633A1, “NTSR1-TARGETED RADIOPHARMACEUTICALS AND CHECKPOINT INHIBITOR COMBINATION THERAPY” (Fusion Pharmaceuticals Inc., priority 2022, published 2025)

Legend:
[1] = test system: mouse NTSR1 overexpressing tumors; assay: [177Lu]-Compound A biodistribution in CT-26 syngeneic model; format: in vivo; details: 6-48 hours post injection
Protocol: Tumor uptake was maintained at 2.5-7% injected dose/g (ID/g) from 6-48 hours post injection.

CT-26-mNTSR1 tumor [2] = assay: Combination with checkpoint inhibitors, survival in the CT-26-mNTSR1 mouse model; format: in vivo; details: for Overall survival: intravenous
Protocol: An in vivo study was conducted to test the effect of [^225Ac]-Compound A (as described in Example 3) combined with checkpoint inhibitors, α-CTLA-4 and α-PD-1 antibodies, on survival in the CT-26-mNTSR1 mouse model.
Separately, an in vivo study was conducted to test the effect of [^225Ac]-Compound A (as
described in Example 4) at a different dosage in combination with checkpoint inhibitors, α-CTLA-4 and α-PD-1 antibodies, on survival in the CT-26-mNTSR1 mouse model.

CT-26-mNTSR1 tumor [3] = assay: Efficacy study in immunocompetent CT-26-mNTSR1 tumor bearing-mice (tumor volume); format: in vivo, mouse; details: different doses; CT-26-mNTSR1 syngeneic mice with an intact immune system
CT-26-mNTSR1 tumor [4] = assay: Combination with checkpoint inhibitors, relative tumor volume in the CT-26-mNTSR1 mouse model; format: in vivo
Protocol: An in vivo study was conducted to test the effect of [^225Ac]-Compound A (as described in Example 3) combined with checkpoint inhibitors, α-CTLA-4 and α-PD-1 antibodies, on relative tumor volume in the CT-26-mNTSR1 mouse model.

Compound | Tumor uptake [1] | Overall survival (CT-26-mNTSR1 tumor [2]; 0.185 MBq/kg single-dose, with 5 mg/kg α-CTLA-4 or α-PD-1 (or both), compared to vehicle control or [225Ac]-Compound A alone) | Overall survival (CT-26-mNTSR1 tumor [2]; 0.555 MBq/kg single-dose, with 5 mg/kg α-CTLA-4 or α-PD-1, compared to the vehicle and [225Ac]-Compound A single treatment group) | Survival (CT-26-mNTSR1 tumor [2]; 0.555 MBq/kg, co-administration with both α-CTLA-4 and α-PD-1, compared to vehicle control or [225Ac]-Compound A with or without either antibody) | Efficacy in reducing tumor volume (CT-26-mNTSR1 tumor [3]) | Efficacy (tumor volume) (CT-26-mNTSR1 tumor [4]; 0.185 MBq/kg or 0.555 MBq/kg single-dose, intravenous, co-administered with 5 mg/kg of CTLA-4 or PD-1 or both) | Tumor regression, duration (CT-26-mNTSR1 tumor [4]; 0.555 MBg/kg dose, co-administration with both CTLA-4 and PD-1) [days post-treatment] | Tumor volume (CT-26-mNTSR1 tumor [4]; 0.555 MBg/kg dose, co-administration with both CTLA-4 and PD-1, compared to vehicle control and 225Ac-radiopharmaceutical alone groups) | Tumor volume (CT-26-mNTSR1 tumor [4]; 0.555 MBq/kg single-dose, intravenous, alone, relative to the vehicle control group)
COc1cccc(OC)c1-c1cc(C(=O)NC2(C(=O)O)C3CC4CC(C3)CC2C4)nn1-c1ccc(C(=O)N(C)CCCN(C)CCCN(C)C(=O)CN2CCN(CC(=O)O)CCN(CC(=O)O)CCN(CC(=O)O)CC2)cc1C(C)C (stereo not drawn) [[177Lu]-Compound A, metal not drawn] | 2.5-7 % injected dose/g (ID/g) |  |  |  |  |  |  |  | 
COc1cccc(OC)c1-c1cc(C(=O)NC2(C(=O)O)C3CC4CC(C3)CC2C4)nn1-c1ccc(C(=O)N(C)CCCN(C)CCCN(C)C(=O)CN2CCN(CC(=O)O)CCN(CC(=O)O)CCN(CC(=O)O)CC2)cc1C(C)C (stereo not drawn) [[^225Ac]-Compound A, metal not drawn] |  | increased overall survival | increased overall survival | increased survival | enhanced efficacy in reducing tumor volume | increased efficacy was observed including tumor suppression | ≥ 40 | significantly smaller tumor volume | greater reductions in tumor volume
